Laboratory results taken from paper PMC8213057, “Targeting ALK2: An Open Science Approach to Developing Therapeutics for the Treatment of Diffuse Intrinsic Pontine Glioma” (Journal of Medicinal Chemistry, 2020).

Assays:
MELK = MELK (Homo sapiens, UniProt Q14680); assay: biochemical; conditions: read-out: % enzyme activity, 1 μM; Run 1, Run 2
PKD2/PRKD2 = biological target: T1, PKD2/PRKD2 (Homo sapiens, UniProt Q9BZL6); conditions: 1 μM; Run 1, Run 2
T1 sequence (Q9BZL6 1-878): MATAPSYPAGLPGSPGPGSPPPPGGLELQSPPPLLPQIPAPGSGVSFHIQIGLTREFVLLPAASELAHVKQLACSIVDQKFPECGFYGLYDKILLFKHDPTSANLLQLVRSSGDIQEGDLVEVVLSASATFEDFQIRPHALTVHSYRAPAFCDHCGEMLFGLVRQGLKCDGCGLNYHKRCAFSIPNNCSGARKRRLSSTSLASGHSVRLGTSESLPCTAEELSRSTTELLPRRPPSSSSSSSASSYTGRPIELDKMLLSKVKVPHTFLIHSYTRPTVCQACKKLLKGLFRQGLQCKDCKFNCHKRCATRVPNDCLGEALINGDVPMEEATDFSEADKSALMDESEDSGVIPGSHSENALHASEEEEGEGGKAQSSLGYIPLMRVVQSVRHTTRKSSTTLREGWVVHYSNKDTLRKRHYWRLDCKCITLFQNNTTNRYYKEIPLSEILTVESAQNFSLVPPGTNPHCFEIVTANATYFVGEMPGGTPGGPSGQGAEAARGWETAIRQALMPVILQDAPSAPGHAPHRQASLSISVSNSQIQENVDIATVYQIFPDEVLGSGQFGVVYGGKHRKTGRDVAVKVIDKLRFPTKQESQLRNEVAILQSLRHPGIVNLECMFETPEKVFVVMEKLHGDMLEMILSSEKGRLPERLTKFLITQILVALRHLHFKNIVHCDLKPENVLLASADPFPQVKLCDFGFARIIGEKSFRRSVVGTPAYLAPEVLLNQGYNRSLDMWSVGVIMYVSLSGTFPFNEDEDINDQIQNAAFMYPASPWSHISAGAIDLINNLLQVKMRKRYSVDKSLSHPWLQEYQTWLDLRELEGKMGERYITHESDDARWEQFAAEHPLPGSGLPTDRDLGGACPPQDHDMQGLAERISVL

c-Kit = c-Kit (Homo sapiens, UniProt P10721); conditions: 1 μM; Run 1, Run 2
Chain of c-Kit (P10721 26-976): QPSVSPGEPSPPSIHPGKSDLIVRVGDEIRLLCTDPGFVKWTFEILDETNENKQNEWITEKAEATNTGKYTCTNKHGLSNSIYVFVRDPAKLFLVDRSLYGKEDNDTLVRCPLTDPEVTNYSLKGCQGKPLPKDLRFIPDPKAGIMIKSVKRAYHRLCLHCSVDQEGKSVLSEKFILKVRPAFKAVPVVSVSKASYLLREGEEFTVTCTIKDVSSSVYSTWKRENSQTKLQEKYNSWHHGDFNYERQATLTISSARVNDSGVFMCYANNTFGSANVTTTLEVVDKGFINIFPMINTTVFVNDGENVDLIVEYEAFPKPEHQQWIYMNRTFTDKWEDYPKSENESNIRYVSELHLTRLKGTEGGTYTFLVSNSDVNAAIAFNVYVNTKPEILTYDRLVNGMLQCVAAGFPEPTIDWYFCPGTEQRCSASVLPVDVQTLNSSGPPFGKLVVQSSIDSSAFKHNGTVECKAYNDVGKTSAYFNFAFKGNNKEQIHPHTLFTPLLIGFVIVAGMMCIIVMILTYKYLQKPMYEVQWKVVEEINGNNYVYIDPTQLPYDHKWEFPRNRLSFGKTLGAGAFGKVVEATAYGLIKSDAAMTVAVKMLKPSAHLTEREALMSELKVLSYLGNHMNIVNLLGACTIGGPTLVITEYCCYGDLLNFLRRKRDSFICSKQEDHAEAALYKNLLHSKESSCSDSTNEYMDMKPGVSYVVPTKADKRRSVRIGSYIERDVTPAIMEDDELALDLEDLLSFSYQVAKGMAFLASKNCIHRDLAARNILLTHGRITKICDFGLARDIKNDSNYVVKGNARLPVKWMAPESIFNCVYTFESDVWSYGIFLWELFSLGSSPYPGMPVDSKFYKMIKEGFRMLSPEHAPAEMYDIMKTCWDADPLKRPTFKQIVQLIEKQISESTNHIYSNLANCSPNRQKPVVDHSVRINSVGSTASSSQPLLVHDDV

IKKa/CHUK = biological target: T2, IKKa/CHUK (Homo sapiens, UniProt O15111); assay: biochemical; conditions: read-out: % enzyme activity, 1 μM; Run 1, Run 2
T2 sequence (O15111 1-745): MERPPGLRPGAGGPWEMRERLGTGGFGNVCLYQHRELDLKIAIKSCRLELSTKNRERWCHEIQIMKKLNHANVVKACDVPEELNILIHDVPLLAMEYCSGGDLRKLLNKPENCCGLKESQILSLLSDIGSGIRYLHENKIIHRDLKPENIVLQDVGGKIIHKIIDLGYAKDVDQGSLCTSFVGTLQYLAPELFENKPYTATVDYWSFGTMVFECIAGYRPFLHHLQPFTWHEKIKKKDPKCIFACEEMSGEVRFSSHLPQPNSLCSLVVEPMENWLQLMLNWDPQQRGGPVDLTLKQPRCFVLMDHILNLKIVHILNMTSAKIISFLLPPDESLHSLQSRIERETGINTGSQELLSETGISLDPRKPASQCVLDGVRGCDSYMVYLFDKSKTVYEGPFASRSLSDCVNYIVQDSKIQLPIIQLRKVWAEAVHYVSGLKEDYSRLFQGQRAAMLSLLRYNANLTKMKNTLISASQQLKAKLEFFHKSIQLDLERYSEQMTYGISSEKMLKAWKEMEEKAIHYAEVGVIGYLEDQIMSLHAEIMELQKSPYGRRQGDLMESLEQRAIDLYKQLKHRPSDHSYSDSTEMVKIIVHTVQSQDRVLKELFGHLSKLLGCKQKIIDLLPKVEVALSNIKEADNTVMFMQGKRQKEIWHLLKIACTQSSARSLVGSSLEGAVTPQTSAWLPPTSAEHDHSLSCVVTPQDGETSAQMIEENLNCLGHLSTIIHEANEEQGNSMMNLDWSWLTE

NEK3 = biological target: T3, NEK3 (Homo sapiens, UniProt P51956); assay: biochemical; conditions: read-out: % enzyme activity, 1 μM; Run 1, Run 2
T3 sequence (P51956 1-506): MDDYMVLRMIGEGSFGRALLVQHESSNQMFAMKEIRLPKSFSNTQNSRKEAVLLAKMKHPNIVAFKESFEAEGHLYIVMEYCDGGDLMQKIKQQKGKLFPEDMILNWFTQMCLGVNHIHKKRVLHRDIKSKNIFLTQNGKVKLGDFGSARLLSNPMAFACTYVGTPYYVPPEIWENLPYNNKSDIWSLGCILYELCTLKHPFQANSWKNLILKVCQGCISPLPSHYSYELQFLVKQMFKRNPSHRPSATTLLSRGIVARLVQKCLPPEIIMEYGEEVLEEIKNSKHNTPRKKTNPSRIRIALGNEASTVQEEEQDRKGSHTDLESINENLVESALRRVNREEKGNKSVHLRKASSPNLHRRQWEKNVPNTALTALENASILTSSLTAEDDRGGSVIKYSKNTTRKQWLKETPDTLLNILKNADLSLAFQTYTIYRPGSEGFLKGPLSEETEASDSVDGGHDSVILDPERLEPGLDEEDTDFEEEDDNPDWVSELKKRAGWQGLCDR

Chain of MELK (Q14680 whole entry): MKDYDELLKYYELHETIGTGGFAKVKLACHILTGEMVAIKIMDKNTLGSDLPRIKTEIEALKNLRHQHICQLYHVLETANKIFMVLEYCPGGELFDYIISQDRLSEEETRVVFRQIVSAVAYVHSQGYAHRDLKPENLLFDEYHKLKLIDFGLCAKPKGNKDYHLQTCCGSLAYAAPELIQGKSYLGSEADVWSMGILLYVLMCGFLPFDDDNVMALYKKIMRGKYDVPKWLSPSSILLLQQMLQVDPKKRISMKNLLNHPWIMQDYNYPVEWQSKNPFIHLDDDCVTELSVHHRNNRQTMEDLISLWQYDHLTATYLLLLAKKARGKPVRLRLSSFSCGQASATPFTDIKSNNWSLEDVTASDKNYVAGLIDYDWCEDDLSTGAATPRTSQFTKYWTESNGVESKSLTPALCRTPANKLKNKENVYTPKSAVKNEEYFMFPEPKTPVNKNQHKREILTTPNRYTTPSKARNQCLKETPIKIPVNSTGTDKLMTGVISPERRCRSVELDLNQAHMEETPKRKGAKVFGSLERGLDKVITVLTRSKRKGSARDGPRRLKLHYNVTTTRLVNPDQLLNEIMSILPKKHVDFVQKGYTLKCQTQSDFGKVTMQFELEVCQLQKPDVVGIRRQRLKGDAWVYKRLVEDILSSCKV

| Compound | remaining activity at 1 µM (MELK) [%] | % enzyme activity (PKD2/PRKD2) [%] | % enzyme activity (c-Kit) [%] | remaining activity at 1 µM (IKKa/CHUK) [%] | remaining activity at 1 µM (NEK3) [%] |
| --- | --- | --- | --- | --- | --- |
| COc1cc(-c2cncc(-c3ccc(N4CCN(C)CC4)cc3)c2C)cc(F)c1C(N)=O [Compound 26a, 2-Fluoro-6-methoxy-4-(4-methyl-5-(4-(4-methylpiperazin-1-yl)phenyl)pyridin-3-yl)benzamide] | 99.2 | 95.72 | 74.03 | 83.3 | 88.3 |
| COc1cc(-c2cncc(-c3ccc(N4C[C@@H](C)N(C)[C@@H](C)C4)cc3)c2C)cc(F)c1C(N)=O [Compound 26c, 2-Fluoro-6-methoxy-4-(4-methyl-5-(4-((3R,5S)-3,4,5-trimethylpiperazin-1-yl)phenyl)pyridin-3-yl)benzamide] | 99.4 | 98.89 | 74.89 | 87.4 | 96.2 |
